Converted amounts (≈) assume the structure as drawn.
Tests used:
[1] = Stability test for one month, purity by HPLC; assay type: physicochemical; details: HPLC purity after 30 days at 0° C.
[2] = test system: Ba/F3 EML4-ALK-WT; assay: Cell proliferation assay (CTG), Ba/F3 EML4-ALK-WT; assay type: cell-based; details: Mus musculus, BaF3, 72 hours
Description: (§1) A Representative Number of Compounds were Assayed Against BAF3 Cell Lines Using the Cell Proliferation Assays:
(§2) Cell Culture and Inoculation:
(§3) 1. Cells in logarithmic growth phase were harvested and counted by platelet counter. Trypan blue exclusion method was used to detect the cell viability to ensure that the cell viability was above 90%.
(§4) 2. Adjust the cell concentration; 90 μL cell suspension was added to 96 well plates respectively.
(§5) 3. Cells in 96-well plate were cultured overnight at 37° C., 5% CO2 and 95% of humidity.
(§6) Drug Dilution and Dosing:
(§7) 1. Prepare 10-fold drug solution with the highest concentration of 100 μM, 9 concentrations and 3.16-fold dilution. Add 10 μL of drug solution to each well of 96-well plate inoculated with cells, and set up 3 duplicate wells for each drug concentration.
(§8) 2. Cells in 96-well plates with drug added were cultured for 72 hours at 37° C., 5% CO2 and 95% of humidity, and then […]-GLO® (CTG) analysis was performed.
(§9) 1. Melt CTG reagent and equilibrate cell plates to room temperature for 30 minutes.
2. […]
(§10) 5. Read the cold light value.
(§11) The data were analyzed by GraphPad Prism 5.0 software, and the dose-effect curve was obtained by fitting the data by nonlinear S-curve regression, and IC50 value was calculated accordingly.
(§12) Cell survival rate (%)=(Lumdrug to be tested−Lumculture solution control)/(Lumcell control−Lumculture solution control)×100%. Lum is luminescence. […]

[3] = Solubility measurement (HPLC); assay type: physicochemical; details: for solubility at 30 min: pH 7.0 buffer solution (20 mM), aqueous buffer, thermodynamic from solid
Description: Preparation of reference standard solution: 2 mg of Compound was added individually to 100 mL volumetric flask each. The compound was diluted with acetonitrile to 100 mL.
Preparation of sample solution: 2 mg of Compound was added individually to 2 mL eppendorf tube (EP), followed by addition of 1 mL of pH 7.0 or 10.0 buffer solution (20 mM). The solution was shaken for 2 minutes and left for 30 minutes at 25° C. After standing for 30 minutes, precipitate was formed in the bottom of the EP. The solutions were filtered through a 0.2 um membrane filter, and then diluted by 50 times with water.
The standard and sample solutions were injected into the HPLC on a Shim-Pack CLC-ODS C18 column (150 mm×6.0 mm, 5 μm) with the same volume. The mobile phase consisted of acetonitrile with 2% trichloromethane—20 mM KH2PO4 buffer (pH=7.0) at a flow rate of 1 mL/minute (40:60). The detection wavelength is at 264 nm. Calculation: solubility of sample=the concentration of standard×Area of sample×50/Area of standard.

[4] = test system: Ba/F3 EML4-ALK-L1196M; assay: Cell proliferation assay (CTG), Ba/F3 EML4-ALK-L1196M; assay type: cell-based; details: 72 hours
Description: as §1, §2, §3, §4, §5, §6, §7, §8, §9
2. […]
as §10, §11, §12

[5] = biological target: CYP 3A4 (Homo sapiens (Human), UniProt P08684); assay: P450 3A4 assay in human liver microsomes (CYP inhibition); assay type: in vitro ADME; details: for IC50: testosterone probe substrate
Description: The final concentrations of DMSO and acetonitrile were equal to or less than 0.1%.
The column temperature was maintained at ambient temperature (25° C.). […] The flow rate was maintained at 0.6 mL/min.

[6] = Stability test for one month, purity by HPLC; assay type: physicochemical; details: for Day 30 at 25° C. (purity): HPLC purity after 30 days at 25° C.; for Day 0 (purity): HPLC purity, baseline of stability test
Description: Stability test: The compounds were tested for their stability at 25° C. for one month, using HPLC to measure the purity. […] Compound 2 is not stable at −30° C. […] (Table F).

[7] = test system: BaF3-SLC34A2-ROS1 cell line xenograft; assay: In vivo xenograft assay, subcutaneous BaF3-SLC34A2-ROS1 in nude mice; parameters: species or system Balb/c nude mice; details: 5 mg/kg oral gavage once daily; for Tumor weight at Day 20: nude mice, control 2.118 g
Source text: A representative protocol for the in vivo experiment is as followed to establish the subcutaneous BaF3—SLC34A2-ROS1 cell line xenograft model in nude mice and to evaluate the in vivo therapeutic efficacy of the compounds:
Animals: Male Balb/c nude mice (6˜8 weeks old) were obtained from SLAC Laboratory Animal, Shanghai, China. Animals were maintained under SPF conditions in sterile filter top cages and housed on HEPA-filtered ventilated racks. Animals received sterile rodent chow and water ad libitum.
Cell line: BaF3—SLC34A2-ROS1, S.C.
Xenograft Models in Athymic Mice: Cells for implantation into athymic mice were harvested and pelleted by centrifugation at 1200 r/min for 5 min. Cells were washed once and resuspended in sterile PBS buffer with 5×10^6 in 200 μl. Then cells were implanted s.c. into the right scapular region of each mouse and allowed to grow to 200-300 mm^3 before the administration of compound.
Preparation of the Dose Formulation: each compound was suspended in 0.5% sodium carboxymethyl cellulose (CMC-Na). […]
Observations: After inoculation, the animals are checked daily for morbidity and mortality. At the time of routine monitoring, the animals are checked for any effects of tumor growth and treatments on normal behavior such as mobility, body weight gain/loss (body weights are measured twice weekly or every other day), eye/hair matting and any other abnormal effect. Death and observed clinical signs are recorded on the basis of the numbers of animals within each subset.
Tumor Size Measurements: Tumor volume was determined by measurement with electronic vernier calipers every 3 days and tumor volume was calculated as the product of its length×width2×0.5. […]
Percentage (%) inhibition values were measured for drug-treated mice compared with vehicle-treated mice and are calculated as follows: Tumor growth inhibition (TGI, %)=100−[MTV treated/MTV control]×100, where MTV is the median tumor volume. Significant differences between the treated versus the control groups (p<0.05) were determined using t test. […]

[8] = One-month toxicity studies in rats; assay type: in vivo; details: 8 mg/kg/day females and 16 mg/kg/day males
[9] = PK study (bioavailability); assay type: in vivo; details: rats; 1 mg/kg IV and 10 mg/kg orally; parent compound plus major metabolites
Description: A representative protocol for the PK (pharmacokinetic) assay was as followed: Compounds were given either IV or orally to the same animals. The dose for each compound was 1 mg/kg (volume 5 ml/kg) IV and 10 mg/kg (volume 10 ml/kg) orally. The formulation for IV was in 10% SOLUTOL® HS 15+90% Phosphate-Buffered Saline at […]. A 100% (0.5% Tween 80 in 0.5% methylcellulose (MC) in water) at […] suspension was used for the oral formulation. Sample collection: for the IV route, plasma samples were collected at the time points of 0.083, 0.25, 0.5, 1, 2, 4, 8 and 24 hr. For the oral route, plasma samples were collected at the time points of 0.25, 0.5, 1, 2, 4, 8 and 24 hr. Total bioavailability is calculated by adding parent compound and major metabolites. Analysis: LC-MS/MS was used to calculate PK parameters: t1/2, tmax, Cmax, Vss and AUC, etc.
The following Table E lists selected compounds and their bioavailability (F).
Compound 3 and 4 have much improved bioavailability (F=100%).

Chain of CYP 3A4 (P08684 whole entry): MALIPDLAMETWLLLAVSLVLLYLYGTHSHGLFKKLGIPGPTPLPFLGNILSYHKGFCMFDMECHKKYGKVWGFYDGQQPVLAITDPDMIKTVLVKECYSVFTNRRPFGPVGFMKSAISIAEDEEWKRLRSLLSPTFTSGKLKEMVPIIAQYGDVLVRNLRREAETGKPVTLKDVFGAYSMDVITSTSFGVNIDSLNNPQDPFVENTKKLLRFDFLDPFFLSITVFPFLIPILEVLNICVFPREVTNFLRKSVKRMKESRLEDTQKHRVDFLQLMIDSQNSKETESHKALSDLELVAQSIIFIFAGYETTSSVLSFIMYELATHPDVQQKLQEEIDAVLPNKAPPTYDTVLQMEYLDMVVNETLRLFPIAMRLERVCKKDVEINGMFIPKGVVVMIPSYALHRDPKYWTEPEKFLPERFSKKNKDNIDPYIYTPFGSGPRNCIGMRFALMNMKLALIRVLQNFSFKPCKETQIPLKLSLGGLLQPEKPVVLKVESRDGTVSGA

Day 30 at 0° C. (purity) [1] [%]	solubility at 30 min ([3]; pH 7.0 buffer (20 mM), 25° C.) [µg/mL]	Stability at 0° C. or 25° C. (in words) ([6]; one month)	Day 30 at 25° C. (purity) [6] [%]	Day 0 (purity) [6] [%]	SMILES	IC50 [5] [µM]	Tumor weight at Day 20 [7] [g]	other results
99.18	772 (≈ 1530 µM)	no significant changes	99.16	99.24	CC(=O)NCC(=O)Nc1ncc2cc1O[C@H](C)c1cc(F)ccc1C(=O)N(C)Cc1nn(C)c(C#N)c1-2 [Compound 3]	279	0.327	IC50 [2]: 0.0028 µM; Solubility at pH=7.0 (in words) ([3]; compared with compound 2 and Lorlatinib): much higher solubility; IC50 [4]: 0.051 µM; CYP 3A4 inhibition (in words) ([5]; compared with Lorlatinib and Compound 2): much weaker inhibition; Tumor growth inhibition at day 20 (in words) ([7]; compared with Lorlatinib): significant better tumor growth inhibition
97.13	–	no significant changes	97.25	97.23	COC(=O)NCC(=O)Nc1ncc2cc1O[C@H](C)c1cc(F)ccc1C(=O)N(C)Cc1nn(C)c(C#N)c1-2 [Compound 4]	–	–	–
–	29 (≈ 71.4 µM)	–	–	–	C[C@H]1Oc2cc(cnc2N)-c2c(nn(C)c2C#N)CN(C)C(=O)c2ccc(F)cc21 [Lorlatinib, reference compound]	–	0.531	Prothrombin time [8]: shorten time; #LYMPH and Red blood cell in blood ([8]; end of administration and recovery periods): decreased
99.01	–	no significant changes	99.05	99.05	CCOC(=O)NCC(=O)Nc1ncc2cc1O[C@H](C)c1cc(F)ccc1C(=O)N(C)Cc1nn(C)c(C#N)c1-2 [Compound 5]	–	–	–

SMILES	Day 30 at 0° C. (purity) [1] [%]	solubility at 30 min ([3]; pH 7.0 buffer (20 mM), 25° C.) [µg/mL]	Stability at 0° C. or 25° C. (in words) ([6]; one month)	Day 30 at 25° C. (purity) [6] [%]	Day 0 (purity) [6] [%]	IC50 [5] [µM]	Tumor weight at Day 20 [7] [g]	other results
C[C@H]1Oc2cc(cnc2NC(=O)CN)-c2c(nn(C)c2C#N)CN(C)C(=O)c2ccc(F)cc21 [Compound 2, reference compound]	92.58	–	–	86.14	97.28	10	–	Solubility at pH 7.0 ([3]; pH 7.0 buffer (20 mM), 25° C.): 0.091 mg/mL; Total F (%) (oral bioavailability) [9]: 49%; Stability at 25° C. (in words) ([6]; 25° C., one month): decomposed significantly; Major impurity A at Day 0 ([6]; HPLC, Day 0): 1.13%; Major impurity B at Day 0 ([6]; HPLC, Day 0): 1.39%; Major impurity A at Day 30 ([6]; HPLC, Day 30 at 25° C.): 3.98%; Major impurity B at Day 30 ([6]; HPLC, Day 30 at 25° C.): 8.34%; Stability at −30° C. (in words) ([6]; −30° C.): not stable
